For assay [1], the target named is T1, human MCH1R receptor (Homo sapiens, UniProt Q99705).
T1 construct: host or cells: CHO-K1
The experiment in a line: MCH1R receptor binding by SPA ([125I]-MCH displacement, CHO-K1 hMCH1R membranes). The settings on record: 0.2 nM [125I]-MCH, membranes of CHO-K1 cells expressing hMCH1 receptor, room temperature; Ki calculated from IC50 (Cheng-Prusoff). As for the experimental part:
The compounds according to the invention were evaluated for their binding to the human MCH1R receptor by the following method:
Compounds: MCH peptide was purchased from Phoenix pharmaceuticals. (Phe^13, [^125I]Tyr^19 Melanine-Concentrating Hormone (human, mouse, rat) ([^125I]-MCH) was obtained from NEN life Science Products. Inc. Boston, Mass. Wheat germ agglutinine SPA beads (RPNQ 0001) were obtained from Amersham-Pharmacia Biotech. All other reagents used are of highest purity from different resources available. Protein Kits, Micro BCA™ Protein Assay Reagent Kit (Cat No. 23235) were purchased from Piece, Rockford, Ill., USA.
CHO-K1 cells expressing hMCH1 receptor were purchased from Euroscreen. CHO-K1 hMCHRI (Euroscreen, Brussels, Belgium, # ES-370-C) were cultivated in Nutrient mixture Ham's F-12 with Glutamax I (Gibco-BRL #31765-027) supplemented with 10% heat-inactivated foetal calf serum (FCS, Gibco-BRL #10108-165) and 400 μg/ml geniticin (Gibco-BRL #1140-0359). The cells were sub-cultivated twice weekly with split ratio=1:20-1:30. For membrane preparation the cells were cultured in […] and the cells were harvested when 90% confluent.
When the cells reached more than 90% confluence, dishes (500 cm^2) were rinsed twice with 20 ml PBS (Ca^2+ and Mg^2+ free). Buffer A, which contains Tris.HCl (15), MgCl2.6H2O (2), EDTA (0.3), EGTA (1) in mM with pH 7.5, 25 ml was added and cells were suspended using a window scraper. The cells were collected in 50 ml Falcon tube pre-cooled on ice and then centrifuged for 3 minutes at 1500 g at 4° C. […]
The radio labeled [^125I]-MCH was diluted with cold MCH in ratio 1:3. […] The results were calculated using Excel program and the curves were drawn using a program GraphPad Prism.
For screening of the substances the amount of the beads used was 0.25 mg/well and the amount of the membrane protein was 4 μg/well 0.2 nM of labeled MCH was used. […] The samples were counted using Microbeta counter (Wallac Trilux 1450 Micro beta counter, Wallac, Finland) for 2 minutes and the results were calculated by using the computer program Activity Base. […]

Assay [2] concerns the target T1, human MCH1R receptor. Particulars: from Hervieu et al., Eur J Neurosci 2000; read-out: Kd of MCH binding reported in literature; cited from earlier work.

Structures can show the parent of a compound that is named as a salt.

T1 sequence (Q99705 whole entry): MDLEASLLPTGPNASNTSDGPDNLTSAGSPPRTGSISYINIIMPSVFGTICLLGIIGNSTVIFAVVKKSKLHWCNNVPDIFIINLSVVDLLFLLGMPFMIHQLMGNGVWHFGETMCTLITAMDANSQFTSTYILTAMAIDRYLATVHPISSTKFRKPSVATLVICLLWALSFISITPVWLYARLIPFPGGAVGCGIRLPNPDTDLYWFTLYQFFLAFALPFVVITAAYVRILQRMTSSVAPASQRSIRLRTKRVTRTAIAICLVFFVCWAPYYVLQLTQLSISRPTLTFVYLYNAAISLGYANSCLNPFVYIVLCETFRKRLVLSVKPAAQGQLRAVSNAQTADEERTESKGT

Consider `COc1ccc([C@@]23CC[C@@H](NC(=S)NCc4ccccc4)C[C@@H]2N(CCCc2ccccc2)CC3)cc1OC` (relative stereo) [Example 23, N-benzyl-N′-[(3aS*,6R*,7aS*)-3a-(3,4-dimethoxyphenyl)-1-(3-phenylpropyl)octahydro-1H-indol-6-yl]thiourea], for which, on human MCH1R receptor [1], the Ki is 43 nM.

With `C=CCNC(=O)N[C@@H]1CC[C@@]2(c3ccc(OC)c(OC)c3)CCN(C)[C@H]2C1` (relative stereo) [Example 58, N-allyl-N′-[(3aS*,6R*7aS*)-3a-(3,4-dimethoxyphenyl)-1-methyloctahydro-1H-indol-6-yl]urea trifluoroacetate], at human MCH1R receptor [1], the Ki was 907 nM.

For the compound `COc1ccc([C@@]23CC[C@@H](NC(=O)NCc4ccc(Br)cc4)C[C@@H]2N(C)CC3)cc1OC` (relative stereo) [Example 69, N-(4-bromobenzyl)-N′-[(3aS*,6R*,7aS*)-3a-(3,4-dimethoxyphenyl)-1-methyloctahydro-1H-indol-6-yl]urea trifluoroacetate], at human MCH1R receptor [1], the Ki is 227 nM.

With [^125I]-MCH, the Kd on human MCH1R receptor [2] is 1.2 nM.

What is called Ki is the dissociation constant of the complex between target and ligand, obtained from inhibition or displacement. By Kd is commonly meant a measure of binding affinity in units of concentration.

The record behind these values is patent US20050192339A1, “Compounds” (priority 2003, published 2005).
